Reference: patent US20100056516A1 (priority 2006, published 2010)

How the values were obtained:
HIV integrase = HIV integrase (Human immunodeficiency virus type 1 group M subtype B, UniProt P04585); assay: integrase strand transfer assay (STA); assay type: biochemical; conditions: integrase strand transfer; read-out: IC50 in the STA assay
HXB2 virus = assay: microbe, parasite or virus in culture; assay type: cell-based, HIV; conditions: Human immunodeficiency virus 1, HXB2, HeLaP4-2, read-out: antiviral IC50 (SCIA-B)
In short: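 Single-cycle infectivity assay in HeLa P4-2 cells measuring inhibition of acute HIV infection, using HXB2 virus.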

| Structure (SMILES) | IC50 (HIV integrase) [µM] | IC50 (HXB2 virus) [µM] |
| --- | --- | --- |
| O=c1cc(N2CCCC(CN3CCOCC3)C2)c2cccnc2n1O (stereo not shown) [Example 144, 1-hydroxy-4-[3-(4-morpholinylmethyl)-1-piperidinyl]-1,8-naphthyridin-2(1H-one)] | < 50 | < 100 |
| COc1cccc(CNc2cc(=O)n(O)c3ncccc23)c1 [Example 145, 1-hydroxy-4-[(3-methoxybenzyl)amino]-1,8-naphthyridin-2(1H-one)] | < 50 | < 100 |
| O=c1cc(NCc2cccc(F)c2)c2cccnc2n1O [Example 146, 4-[(3-fluorobenzyl)amino]-1-hydroxy-1,8-naphthyridin-2(1H-one)] | < 50 | < 100 |
| CN1CCN(c2cc(=O)n(O)c3ncccc23)CC1=O [Example 148, 1-hydroxy-4-(4-methyl-3-oxo-1-piperazinyl)-1,8-naphthyridin-2 (1H-one)] | < 50 | < 100 |
| O=c1cc(NCc2ccc(F)cc2)c2cccnc2n1O [Example 152] | < 50 | < 100 |
| O=c1cc(NCc2cccc(CN3CCCCC3)c2)c2cccnc2n1O [Example 153] | < 50 | < 100 |
| O=c1cc(NCc2ccccc2F)c2cccnc2n1O [Example 155, 4-[(2-fluorobenzyl)amino]-1-hydroxy-1,8-naphthyridin-2(1H-one)] | < 50 | < 100 |
| CC(C1CCN(c2cc(=O)n(O)c3ncccc23)CC1)N1CCOCC1 (stereo not shown) [Example 156, 1-hydroxy-4-{4-[1-(4-morpholinyl)ethyl]-1-piperidinyl}-1,8-naphthyridin-2(1H-one)] | < 50 | < 100 |
| CC(Nc1cc(=O)n(O)c2ncccc12)c1ccccc1 (stereo not shown) [Example 157, 1-hydroxy-4-[(1-phenylethyl)amino]-1,8-naphthyridin-2(1H-one)] | < 50 | < 100 |
| NCc1cccc(CNc2cc(=O)n(O)c3ncccc23)c1 [Example 159, 4-{[3-(aminomethyl)benzyl]amino}-1-hydroxy-1,8-naphthyridin-2(1H-one)] | < 50 | < 100 |
| O=c1cc(NCc2ccncc2)c2cccnc2n1O [Example 160, 1-hydroxy-4-[(4-pyridinylmethyl)amino]-1,8-naphthyridin-2 (1H-one)] | < 50 | < 100 |
| O=c1cc(NCCN2CCOCC2)c2cccnc2n1O [Example 161] | < 50 | < 100 |
| O=c1cc(NCc2cccnc2)c2cccnc2n1O [Example 162, 1-hydroxy-4-[(3-pyrindinylmethyl)amino]-1,8-naphthyridin-2 (1H-one)] | < 50 | < 100 |
| CCOC(=O)CN1CCN(c2cc(=O)n(O)c3ncccc23)CC1 [Example 164, ethyl[4-(1-hydroxy-2-oxo-1,2-dihydro-1,8-naphthyridin-4-yl)-1-piperazinyl]acetate] | < 50 | < 100 |
| CC1CCN(Cc2cccc(CNc3cc(=O)n(O)c4ncccc34)c2)CC1 [Example 165, 1-hydroxy-4-({3-[(4-methyl-1-piperidinyl)methyl]benzyl}amino)-1,8-naphthyridin-2 (1H-one)] | < 50 | < 100 |
| O=c1cc(NC(CN2CCCCC2)c2ccccc2)c2cccnc2n1O (stereo not shown) [Example 166, 1-hydroxy-4-{[1-phenyl-2-(1-piperidinyl)ethyl]amino}-1,8-naphthyridin-2 (1H-one)] | < 50 | < 100 |

| Structure (SMILES) | IC50 (HIV integrase) [µM] | IC50 (HXB2 virus) [µM] |
| --- | --- | --- |
| O=c1cc(NCc2cnc(-c3ccccc3)[nH]2)c2cccnc2n1O [Example 167, 1-hydroxy-4-{[(2-phenyl-1-imidazole-5-yl)methyl]amino}-1,8-naphthyridin-2 (1H-one)] | < 50 | < 100 |
| O=C1N[C@H]2CCCC[C@@H]2Nc2c1c(=O)n(O)c1ncccc21 [Example 169, (8aS, 12aS)-5-hydroxy-8,8a,9,10,11,12,12a,13-octahydro-5H-[1,8]naphthyridino[4,3-b][1,5]benzodiazepine-6,7-dione] | < 50 | < 100 |
| O=C1N[C@H](c2ccccc2)[C@H](c2ccccc2)Nc2c1c(=O)n(O)c1ncccc21 [Example 170, (2S, 3R)-7-hydroxy-2,3-diphenyl-3,4-dihydro-1H-[1,4]diazepino[6,5-c]-1,8-naphthyridine-5,6(2H, 7H)-dione] | < 50 | < 100 |
| O=c1cc(-c2ccccc2)c2cccnc2n1O [Example 171, 1-Hydroxy-4-phenyl-1,8-naphthyridin-2(H)-one] | < 50 | < 100 |
| O=c1cc(-c2ccc3ccccc3c2)c2cccnc2n1O [Example 173, 1-hydroxy-4-(2-naphthyl)-1,8-naphthyridin-2(1H)-one] | < 50 | < 100 |
| CC(c1ccc(-c2cc(=O)n(O)c3ncccc23)cc1)N1CCOCC1 (stereo not shown) [Example 174, 1-hydroxy-4-[4-(1-morpholin-4-ylethyl)phenyl]-1,8-naphthyridin-2(1H)-one] | < 50 | < 100 |
| CS(=O)(=O)Nc1cccc(-c2cc(=O)n(O)c3ncccc23)c1 [Example 175, N-[3-(1-hydroxy-2-oxo-1,2-dihydro-1,8-naphthyridin-4-yl)phenyl]methanesulfo-namide] | < 50 | < 100 |
| Cc1cc(C)n(-c2cccc(-c3cc(=O)n(O)c4ncccc34)c2)n1 [Example 176] | < 50 | < 100 |
| CS(=O)(=O)Nc1cccc(-c2cccc(-c3cc(=O)n(O)c4ncccc34)c2)c1 [Example 177, N-[3′-(1-hydroxy-2-oxo-1,2-dihydro-1,8-naphthyridin-4-yl)biphenyl-3-yl]methanesulfonamide] | < 50 | < 100 |
| CC(c1ccc(-c2cccc(-c3cc(=O)n(O)c4ncccc34)c2)cc1)N1CCOCC1 (stereo not shown) [Example 178, 1-hydroxy-4-[4′-(1-morpholin-4-ylethyl)biphenyl-3-yl]-1,8-naphthyridin-2(1H)-one] | < 50 | < 100 |
| O=C(c1cccc(-c2cc(=O)n(O)c3ncccc23)c1)N1CCOCC1 [Example 179, 1-hydroxy-4-[3-(morpholin-4-ylcarbonyl)phenyl]-1,8-naphthyridin-2(1H)-one] | < 50 | < 100 |
| CNC(=O)c1cccc(-c2cc(=O)n(O)c3ncccc23)c1 [Example 180, 3-(1-hydroxy-2-oxo-1,2-dihydro-1,8-naphthyridin-4-yl)-N-methylbenzamide] | < 50 | < 100 |
| CN(C)C(=O)c1cccc(-c2cc(=O)n(O)c3ncccc23)c1 [Example 181, 3-(1-hydroxy-2-oxo-1,2-dihydro-1,8-naphthyridin-4-yl)-N,N-dimethylbenzamide] | < 50 | < 100 |
| CC(C)(C)NC(=O)c1cccc(-c2cc(=O)n(O)c3ncccc23)c1 [Example 182] | < 50 | < 100 |
| O=c1cc(-c2cccc(CO)c2)c2cccnc2n1O [Example 183, 1-hydroxy-4-[3-(hydroxymethyl)phenyl]-1,8-naphthyridin-2(1H)-one] | < 50 | < 100 |
| O=c1cc(-c2ccc3ncccc3c2)c2cccnc2n1O [Example 184, 1-hydroxy-4-quinolin-6-yl-1,8-naphthyridin-2(1H)-one] | < 50 | < 100 |
